Where two headings read alike, the source gives them in different places.
Key:
[1] = Solubility of compounds and common preservatives in Bio-PDO and PG; format: physicochemical
Excerpt: Cosmetic preservative blends need a broad range of protection against gram positive and negative bacteria, yeasts and molds. In cosmetics, solubility is also important. Clear solutions are preferred to emulsions, suspensions or dispersions. […] Other preservatives or a mixture of preservatives can be used with Bio-PDO™, such as choloracetamide sodium benzoate, 5-bromo-5-nitro-1,3-dioxane, butyl paraben, ethyl paraben, isobutyl paraben, iodopropynyl butylcarbamate, and 2,4,4′-trichloro-2′-[…].

humans [2] = experiment: Human repeated patch test for irritation or delayed contact hypersensitivity (Example 2); format: in vivo; conditions: diluted with D.I. water to 5%, 25% and 50%, nine 24-hour induction patches and challenge
Excerpt: The purpose of this study was to determine the potential of biologically-derived 1,3-propanediol, diluted to concentrations of 5%, 25%, and 50%, to cause irritation or delayed contact hypersensitivity in humans. The method employed in carrying out this test, described below, was similar to that described in “Appraisal of the Safety of Chemicals in Foods, Drugs and Cosmetics” by […] and published by the Association of Food and Drug Officials of the United States, the entirety of which is incorporated herein by reference.
Test Panel: The test involved the application of the test article to the upper arms of a group of 112 volunteer panelists. The panelists ranged from 16 to 71 years of age. One hundred and five panelists completed the study. Prior to the initiation of the study, all panelists were in good general health and free of any visible skin disease or anomaly in the area to be patched. Each panelist was required to read, understand and sign an informed consent statement. […]

humans [3] = experiment: Second human study of irritation or delayed contact hypersensitivity, Bio-PDO vs PG (Example 3); format: in vivo
Excerpt: A second study to determine the potential of biologically-derived 1,3-propanediol and PG, diluted to concentrations of 25%, 50%, and 75% (pH 4, 7 and 9 tested) to cause irritation or delayed contact hypersensitivity in humans.

skin = conditions: background statement, Kinnunen et al. 1991; cited from earlier work

OCCCCO [1,4-Butanediol]
Solubility in Bio-PDO ™ ([1]; 50 Wt % in Bio-PDO (Table 1)): Soluble
Solubility in PG ([1]; 50 Wt % in PG (Table 1)): Soluble

OCCCO [Bio-PDO™, 1,3-propanediol]
Skin irritation, fatiguing or sensitization (humans [2]): not to be a skin irritant, fatiguing agent, or sensitizing agent
Dermal irritation or sensitization reactions (humans [3]; humans, 25, 50 and 75% at pH 7, or 75% at pH 4 and 9): did not produce any clinically significant dermal irritation or sensitization reactions

CCO [Ethanol]
Solubility in Bio-PDO ™ [1]: Soluble
Solubility in PG [1]: Soluble

OCC(O)CO [Glycerol]
Solubility in Bio-PDO ™ [1]: Soluble
Solubility in PG [1]: Soluble

CC(C)O [IPA]
Solubility in Bio-PDO ™ ([1]; 50 Wt % in Bio-PDO (Table 1)): Soluble
Solubility in PG ([1]; 50 Wt % in PG (Table 1)): Soluble

Oc1cc(Cl)ccc1Oc1ccc(Cl)cc1Cl [Irgasan]
Solubility in Bio-PDO ™ ([1]; 20 Wt % in Bio-PDO (Table 2)): Soluble
Solubility in PG ([1]; 20 Wt % in PG (Table 2)): Soluble

CC(O)CO (centres unmarked) [PG, propylene glycol, reference compound]
Dermal irritation (humans [3]; in vivo, pH 7): produced dermal irritation at all three concentrations
Skin irritation and sensitization (skin): is a skin irritant and skin sensitizer

O=C(O)c1ccccc1O [Salicyclic acid]
Solubility in Bio-PDO ™ ([1]; 10 Wt % in Bio-PDO (Table 2)): Soluble
Solubility in PG ([1]; 10 Wt % in PG (Table 2)): Soluble
Solubility in Bio-PDO ™ ([1]; 15 Wt % in Bio-PDO (Table 2)): Soluble
Solubility in PG ([1]; 15 Wt % in PG (Table 2)): Soluble
Solubility in Bio-PDO ™ ([1]; 20 Wt % in Bio-PDO (Table 2)): Not Soluble
Solubility in PG ([1]; 20 Wt % in PG (Table 2)): Soluble

From patent publication US20080176957A1, “PRESERVATIVE COMPOSITIONS COMPRISING RENEWABLY-BASED, BIODEGRADABLE 1,3-PROPANEDIOL” (priority 2006, published 2008)
